Where “and” joins values, the source holds several entries; their conditions need not be identical. Equal entries are not always repeated. Where two headings read alike, the source gives them in different places.
Legend:
[1] = Excretion mass balance, single intravenous dose; assay type: in vivo, Sprague Dawley rats; details: intravenous 10 mg/kg, over 168 hours
Method: (§1) Nine male Sprague Dawley rats (Group 1) were designated for the pharmacokinetic phase, 3 male Sprague Dawley rats (Group 2) for the excretion mass balance phase, and 7 male Sprague Dawley rats (Group 3) and 9 male Long Evans rats (Group 4) for the tissue distribution phase. All animals received a single intravenous dose of [^14C]-25HC3S at 10 mg/kg and a target radioactivity of 225 μCi/kg. Blood samples were collected from all Group 1 animals at approximately 0.083, 0.25, 0.5, 1, 2, 4, 8, 12, 24, 48, and 72 hours post-dose. Urine and feces were collected from all Group 2 animals periodically through 168 hours post-dose. […] Following blood collection, animals were euthanized by CO2 inhalation and carcasses frozen in a dry ice/hexane bath for processing by quantitative whole body autoradiography. Whole blood, plasma, urine, feces, cage rinse, and cage wash were analyzed for total radioactivity by liquid scintillation counting.

[2] = Tissue distribution by quantitative whole body autoradiography, intravenous dose; assay type: in vivo, Sprague Dawley rats; details: intravenous 10 mg/kg
Method: as §1

[3] = rat, in vivo, po, 75 mg/kg
Method: Plasma concentrations were similar to those determined in the pharmacokinetics phase and were above the lower limit of quantitation.
Pancreas and liver concentrations ranged from 23,500 ng equiv./g to 28,100 ng equiv./g. Uveal tract and brain concentrations were lowest relative to the other tissues and were approximately 1000 ng equiv./g. Skin, thymus, prostate, and pituitary tissue concentrations were <3000 ng equiv./g. Remaining tissues had concentrations between 3600 ng-equiv./g and 10,700 ng equiv./g. […] As calculated using AUClast, the tissue:plasma ratios were highest for the small intestine (wall, 15.4) followed by the liver and adrenal gland at 6.96 and 6.64, respectively. High liver and small intestine concentrations are consistent with oral administration and biliary (fecal) excretion.

[4] = Metabolite profiling of plasma, urine, feces, intravenous dose; assay type: in vivo, Sprague Dawley rats; details: intravenous 10 mg/kg
Method: as §1

[5] = parameters: species or system rats; details: rat, in vivo, po, 75 mg/kg
Method: The terminal elimination phase T1/2 was 27.3 hours.

[6] = molecular target: DNMT1 (Homo sapiens, UniProt P26358); assay: DNMT1 activity assay (Poly(dI-dC) substrate, ^3H-SAM); assay type: biochemical; details: read-out: IC50, DNMT-1 activity
Method: (§2) For the DNMT1 activity assay, the substrate solution, 0.001 mg/ml Poly(dI-dC):Poly(dI-dC) in 50 mM Tris-HCl, pH 7.5, 50 mM NaCl, 5 mM EDTA, 5 mM DTT, 1 mM PMSF, 5% glycerol, 0.01% Brij35, 1% DMSO was used. For the DNMT3a/3b activity assay, 0.0075 mg/ml Lambda DNA in 50 mM Tris-HCl, pH 7.5, 50 mM NaCl, 5 mM EDTA, 5 mM DTT, 1 mM PMSF, 5% glycerol, 1% DMSO, was used. The indicated DNMT1, DNMT3a, or DNMT3b was added to the appropriate substrate solution and gently mixed. […] The mixtures were first incubated for 15 min, then ^3H-SAM was added to the reaction mixture to initiate the reaction, and the mixture was incubated for 60 min at 30° C. Following incubation, the reaction mixture was finally transferred to filter-paper for detection of radioactivity counts.

[7] = molecular target: DNMT3b (Homo sapiens, UniProt Q9UBC3); assay: DNMT3b activity assay (Lambda DNA substrate, ^3H-SAM); assay type: biochemical; details: read-out: IC50, DNMT3b activity
Method: as §2

[8] = molecular target: DNMT3a (Homo sapiens, UniProt Q9Y6K1); assay: DNMT3a activity assay (Lambda DNA substrate, ^3H-SAM); assay type: biochemical; details: read-out: IC50, DNMT3a activity
Method: as §2

[9] = system: ^5mCpG in promoter regions, Huh-7 cells; assay: Whole genome bisulfite sequencing (WGBS); assay type: cell-based, human
Method: Each sample, 2 μg, was sent to EpigenDx, Inc. (Hopkinton, Mass.) for analysis of global methylation bisulfite sequencing. The same samples, 6 μg, were sent to Novogene Co., Ltd (Tianjin, China) for analysis of whole genome bisulfite sequencing (WGBS). Total RNA was isolated using the Promega SV total RNA isolation system (Madison, Wis.) with DNase treatment. Each sample, 2 μg, was used for the first-strand cDNA synthesis as recommended by the manufacturer (Invitrogen, Carlsbad, Calif.). Real-time RT-PCR was performed using SYBR Green as the indicator on ABI 7500 Fast Real-Time PCR System (Applied Biosystems, Foster City, Calif.). Amplifications of β-actin or GAPDH were used as internal controls. Relative messenger RNA (mRNA) expression was quantified with the comparative cycle threshold (Ct) method using the primer set shown in Table 1.1 and was expressed as 2^−ΔΔCt.
Each sample, 5.2 μg of genomic DNA spiked with 26 ng lambda DNA, was fragmented by sonication to 200-300 bp with Covaris S220, followed by end repair and adenylation. Cytosine-methylated barcodes were ligated to sonicated DNA per the manufacturer's instructions. These DNA fragments were treated twice with bisulfite using EZ DNA Methylation-Gold™ Kit (Zymo Research) before the resulting single-strand DNA fragments were PCR amplified using KAPA HiFi Hot Start Uracil and Ready Mix (2×). Library concentration was quantified by Qubit® 2.0 Flurometer (Life Technologies, CA, USA) and quantitative PCR, and the insert size was assayed on an Agilent Bioanalyzer 2100 system.
The library preparations were sequenced on an Illumina Hiseq 2500/4000 or Novaseq platform and 125 bp/150 bp paired-end reads were generated. Image analysis and base calling were performed with Illumina CASAVA pipeline. Trimmomatic (Trimmomatic-0.36) software was used for quality control. Bismark software (version 0.16.3; Krueger F, 2011) was used to perform alignments of bisulfite-treated reads to a reference genome (−×700—dovetail). DSS software (23) was used to identify differentially methylated regions (DMRs). KOBAS software was used to test the statistical enrichment of DMR related genes in the Kyoto Encyclopedia of Genes and Genomes (KEGG) pathways.
Each sample (6 μg) was used for analysis of the whole genome bisulfite sequencing (WGBS).

Sequence of DNMT1 (P26358 whole entry): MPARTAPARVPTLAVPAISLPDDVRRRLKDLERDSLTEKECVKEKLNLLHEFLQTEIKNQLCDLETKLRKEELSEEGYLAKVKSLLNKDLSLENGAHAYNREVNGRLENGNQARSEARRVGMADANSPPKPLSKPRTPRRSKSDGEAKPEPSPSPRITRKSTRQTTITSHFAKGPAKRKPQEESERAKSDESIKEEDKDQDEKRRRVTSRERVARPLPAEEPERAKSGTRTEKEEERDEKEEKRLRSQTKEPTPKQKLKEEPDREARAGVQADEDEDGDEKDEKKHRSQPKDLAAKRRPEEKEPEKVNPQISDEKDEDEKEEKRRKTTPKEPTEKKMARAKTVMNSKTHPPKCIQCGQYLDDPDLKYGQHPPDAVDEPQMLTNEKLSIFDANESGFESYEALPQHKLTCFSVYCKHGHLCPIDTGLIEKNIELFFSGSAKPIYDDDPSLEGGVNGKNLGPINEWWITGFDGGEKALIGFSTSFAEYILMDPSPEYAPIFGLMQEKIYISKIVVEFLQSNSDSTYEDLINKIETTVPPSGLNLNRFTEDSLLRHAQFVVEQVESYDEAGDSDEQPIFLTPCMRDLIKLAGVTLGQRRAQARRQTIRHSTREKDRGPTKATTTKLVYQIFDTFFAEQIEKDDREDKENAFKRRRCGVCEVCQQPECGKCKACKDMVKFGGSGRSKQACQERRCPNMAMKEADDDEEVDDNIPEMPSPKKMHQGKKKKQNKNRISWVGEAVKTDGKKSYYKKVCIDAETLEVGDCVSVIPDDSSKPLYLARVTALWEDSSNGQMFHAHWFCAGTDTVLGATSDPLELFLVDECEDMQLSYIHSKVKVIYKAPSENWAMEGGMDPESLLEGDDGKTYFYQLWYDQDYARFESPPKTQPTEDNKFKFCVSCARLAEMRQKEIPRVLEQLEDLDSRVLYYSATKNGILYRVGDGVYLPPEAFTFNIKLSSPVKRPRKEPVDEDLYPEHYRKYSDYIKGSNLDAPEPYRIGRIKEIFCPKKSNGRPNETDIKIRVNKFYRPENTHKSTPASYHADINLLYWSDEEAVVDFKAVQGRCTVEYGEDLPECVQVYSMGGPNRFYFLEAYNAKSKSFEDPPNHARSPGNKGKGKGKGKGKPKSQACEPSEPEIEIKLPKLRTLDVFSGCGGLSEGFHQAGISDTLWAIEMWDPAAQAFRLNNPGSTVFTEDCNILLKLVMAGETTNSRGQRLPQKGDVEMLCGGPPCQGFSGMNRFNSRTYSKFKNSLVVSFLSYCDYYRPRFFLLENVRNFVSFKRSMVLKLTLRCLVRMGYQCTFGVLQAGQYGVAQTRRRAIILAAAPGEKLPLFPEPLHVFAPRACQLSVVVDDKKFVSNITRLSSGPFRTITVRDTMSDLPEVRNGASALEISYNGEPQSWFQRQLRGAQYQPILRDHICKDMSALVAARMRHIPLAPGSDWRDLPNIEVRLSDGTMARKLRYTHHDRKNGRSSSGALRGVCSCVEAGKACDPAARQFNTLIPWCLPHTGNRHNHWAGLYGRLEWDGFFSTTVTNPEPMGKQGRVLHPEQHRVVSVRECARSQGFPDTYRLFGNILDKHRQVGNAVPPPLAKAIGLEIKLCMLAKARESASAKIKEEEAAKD
Sequence of DNMT3a (Q9Y6K1 whole entry, looked up): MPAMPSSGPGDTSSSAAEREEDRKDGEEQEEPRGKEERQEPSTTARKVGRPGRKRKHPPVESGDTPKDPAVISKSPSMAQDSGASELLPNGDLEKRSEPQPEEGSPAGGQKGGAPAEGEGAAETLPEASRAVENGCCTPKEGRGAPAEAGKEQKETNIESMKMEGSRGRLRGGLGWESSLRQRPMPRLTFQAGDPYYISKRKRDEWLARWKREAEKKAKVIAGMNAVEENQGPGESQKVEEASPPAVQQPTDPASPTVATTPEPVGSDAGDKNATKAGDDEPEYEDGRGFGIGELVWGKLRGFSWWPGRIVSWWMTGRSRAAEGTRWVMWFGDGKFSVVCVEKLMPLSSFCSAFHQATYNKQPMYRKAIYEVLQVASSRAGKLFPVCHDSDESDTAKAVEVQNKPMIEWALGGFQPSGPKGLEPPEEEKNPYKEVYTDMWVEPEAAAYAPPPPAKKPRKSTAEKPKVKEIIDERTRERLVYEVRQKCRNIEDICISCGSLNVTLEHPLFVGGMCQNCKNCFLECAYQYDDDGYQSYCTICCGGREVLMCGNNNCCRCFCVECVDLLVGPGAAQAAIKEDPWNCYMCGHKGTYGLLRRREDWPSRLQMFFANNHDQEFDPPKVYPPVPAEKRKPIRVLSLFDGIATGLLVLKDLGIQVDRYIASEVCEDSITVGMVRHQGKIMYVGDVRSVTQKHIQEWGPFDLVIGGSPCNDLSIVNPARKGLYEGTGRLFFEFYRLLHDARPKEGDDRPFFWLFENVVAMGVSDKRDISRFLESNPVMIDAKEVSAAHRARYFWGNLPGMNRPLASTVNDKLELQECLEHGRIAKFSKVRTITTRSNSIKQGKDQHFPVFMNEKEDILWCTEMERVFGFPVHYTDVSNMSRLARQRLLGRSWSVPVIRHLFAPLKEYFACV

C[C@H](CCCC(C)(C)O)[C@H]1CC[C@H]2[C@@H]3CC=C4C[C@@H](OS(=O)(=O)O)CC[C@]4(C)[C@H]3CC[C@]12C [25HC3S, 5-Cholesten-3β, 25-diol 3-sulfate]
dose recovered in urine, feces, and cage rinse [1]: approximately 100.2% | recovered radioactivity in feces [1]: 83.0% | AUClast in liver [2]: ≤ 364,000 h ng/g | tissues in which radioactivity was detected [2]: all tissues except the eye (lens) | whole blood AUClast [2]: 25,200 h*ng-equiv./g | T1/2 in plasma ([2]; QWBA phase): 44.3 h | T1/2 in whole blood ([2]; QWBA phase): 52.2 h | Cmax in small intestine (wall) [3]: 424,000 ng equiv./g | Cmax in stomach (wall) [3]: 204,000 ng equiv./g | tissue Tmax [3]: ≤ 6 hours post-dose | tissues in which radioactivity was detected [3]: all tissues except the eye (lens) | whole blood AUClast [3]: 127,000 h ng equiv./g | whole blood Cmax [3]: 2850 ng equiv/g | % of dose in feces ([4]; 0 to 48 hours post-dose): 2 % of dose | share of exposure (AUC) to 25HC3S related radioactivity in plasma ([4]; up to 1 hour post-dose): approximately 54% | terminal elimination phase T1/2 ([5]; Sprague Dawley): 27.3 h | plasma AUClast [5]: 96,400 h·ng equiv./g | plasma Cmax [5]: 3800 ng equiv./g | IC50 [6]: 4.04 µM | IC50 [7]: 9.05 µM | IC50 [8]: 3.03 µM | genes with demethylated ^5mCpG in promoter regions, Calcium pathway ([9]; of 180 total genes): 19 genes | genes with demethylated ^5mCpG in promoter regions, cAMP pathway ([9]; of 200 total genes): 28 genes | genes with demethylated ^5mCpG in promoter regions, MAPK signaling pathway ([9]; of 257 total genes): 23 genes | number of KEGG pathways enriched in hypomethylated genes ([9]; p<0.05, Huh-7, HG 72 hours, 25 μM 25HC3S 4 hours): 79 KEGG pathways and 75 KEGG pathways
